Columns and labels:
Assay type in all cases: biochemical
cathepsin B [1] = target: T1, cathepsin B (Homo sapiens, UniProt P07858)
cathepsin V = cathepsin V (Homo sapiens, UniProt O60911); experiment: protease activity at a single dose; conditions: read-out: GER-24 (50 μM) % control activity (100%, no inhibitor)
cathepsin K = target: T2, cathepsin K (Homo sapiens, UniProt P43235); experiment: protease activity at a single dose; conditions: read-out: GER-24 (50 μM) % control activity (100%, no inhibitor)
T2 sequence (P43235 115-329): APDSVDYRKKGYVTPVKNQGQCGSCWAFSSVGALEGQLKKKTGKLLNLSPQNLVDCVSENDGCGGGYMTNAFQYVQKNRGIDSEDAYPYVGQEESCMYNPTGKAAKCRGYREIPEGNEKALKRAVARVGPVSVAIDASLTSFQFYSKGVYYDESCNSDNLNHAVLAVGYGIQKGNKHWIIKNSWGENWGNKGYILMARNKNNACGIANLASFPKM

cathepsin B [2] = target: T1, cathepsin B; experiment: fluorogenic Z-Glu-Lys-AMC assay at pH […], IC50
cathepsin S = cathepsin S (Homo sapiens, UniProt P25774); experiment: protease activity at a single dose; conditions: read-out: GER-24 (50 μM) % control activity (100%, no inhibitor)
cathepsin H = cathepsin H (Homo sapiens, UniProt P09668); experiment: protease activity at a single dose; conditions: read-out: GER-24 (50 μM) % control activity (100%, no inhibitor)
cathepsin H, sequence (P09668 116-335, other chains not shown): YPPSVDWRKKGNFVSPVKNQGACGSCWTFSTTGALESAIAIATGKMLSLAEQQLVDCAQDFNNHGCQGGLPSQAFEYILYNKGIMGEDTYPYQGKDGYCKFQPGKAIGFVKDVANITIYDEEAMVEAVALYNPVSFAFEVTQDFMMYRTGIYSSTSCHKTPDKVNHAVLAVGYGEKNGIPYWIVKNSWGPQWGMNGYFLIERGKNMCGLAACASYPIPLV

cathepsin V, sequence (O60911 114-334): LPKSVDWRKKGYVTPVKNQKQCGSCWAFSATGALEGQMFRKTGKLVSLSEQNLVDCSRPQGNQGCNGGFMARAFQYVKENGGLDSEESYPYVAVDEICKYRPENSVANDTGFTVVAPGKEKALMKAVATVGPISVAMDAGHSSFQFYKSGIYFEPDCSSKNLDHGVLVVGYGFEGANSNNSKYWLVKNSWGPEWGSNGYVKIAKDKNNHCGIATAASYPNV
cathepsin S, sequence (P25774 115-331): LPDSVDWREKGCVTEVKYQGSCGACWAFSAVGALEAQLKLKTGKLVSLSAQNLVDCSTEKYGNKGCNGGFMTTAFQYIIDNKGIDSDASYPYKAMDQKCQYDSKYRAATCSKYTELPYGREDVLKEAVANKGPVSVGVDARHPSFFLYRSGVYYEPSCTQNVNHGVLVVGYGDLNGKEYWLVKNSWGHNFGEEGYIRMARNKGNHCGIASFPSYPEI

SMILES	Ki (cathepsin B [1]) [µM]	remaining activity at 50 µM (cathepsin V) [%]	remaining activity at 50 µM (cathepsin K) [%]	IC50 (cathepsin B [2]) [µM]	remaining activity at 50 µM (cathepsin S) [%]	remaining activity at 50 µM (cathepsin H) [%]
O=S(=O)(O)Oc1ccc(Oc2cc(Br)c(Oc3ccc(OS(=O)(=O)O)c(Oc4ccc(Br)cc4Br)c3Br)c(Oc3ccc(Br)cc3Br)c2)cc1Br [GER-12, Crossbyanol B]	1.4					
CCCCC/C=C\C/C=C\C=C/C#CCCCC(=O)O [GER-24, (7Z,9Z,12Z)-octadeca-7,9,12-trien-5-ynoic acid]		17	7	16	0	21

Source: publication PMC9330179 (ACS Omega, 2022)
